Legend:
Kuramochi cells = assay: BrdU cell proliferation assay (colorimetric ELISA), Kuramochi cells; type: cell-based; conditions: class symbols A-D
Description: A BrdU assay was used as a measure of proliferation based on the DNA replication process of proliferating cells. BrdU, a pyrimidine analog, is added to the cell culture and incorporated into the DNA of proliferating cells. The presence of the BrdU analog was then measured through a colorimetric ELISA. After fixation and permeabilization of cells, peroxidase-conjugated antibody recognizing BrdU is added and allowed to incubate, followed by thorough washing to remove unbound antibody. In order to quantify the amount of bound antibody, peroxidase substrate is added and produces a color that can be measured at 450 nm.
On day −1, Kuramochi cells (Sekisui XenoTech JCRB0098) were seeded at 2,000 cells/well in columns 2-12 of a 96 well plate (Corning, CLS3596) in 150 uL media and allowed to adhere overnight at 37 degree with 5% CO2. In order to assess specificity of the compounds, Kuramochi RB^KO cells were also plated and treated, as RB^KO cells were not expected to show a proliferative response to CCNE/CDK specific inhibitors.
On day 0, the source plate was prepared by adding 10 mM compounds and performing 3-fold serial dilutions for a 4-point dose response of each compound. Using a multichannel pipette, 2 uL of the contents of the source plate were stamped into an intermediate plate with 500 uL of RPMI 1640 Media, GlutaMAX Supplement (Life Technologies, 61870127) in each well of a Nunc 96 DeepWell™ plate, non-treated 96 DeepWell plate, 2 mL/well, sterile, natural, 60/cs (Sigma Z717274) and mixed thoroughly. 50 uL from row A of this intermediate plate were added to rows A-H of one plate of previously seeded Kuramochi cells, and each subsequent row of the intermediate plate was added to a full plate of cells.
On day 4, the plates were developed using the BrdU ELISA Cell Proliferation Assay according to manufacturer's instructions (Roche, 11647229001). Briefly, BrdU was diluted 1:100 in Gibco®, Opti-MEM® and 20 μL/well was added, shaken for 10 minutes at 350 rpm, and then returned to the incubator for 1 hour. Following incubation, the medium was discarded, and the cells were fixed by adding 200 μL of Fix/Denature solution. The anti-BrdU peroxidase antibody was diluted 1:1000 in OptiMEM, added at 100 μL/well, and incubated while shaking (350 rpm) for one hour. Three washes with PBS were performed to remove any unbound antibody, followed by the addition of 100 μL of substrate solution to each well. […] was then added to halt the reaction, and plates were read out using an Envision spectrophotometer (Perkin Elmer) set to read 450 nm absorbance. Background absorbance values from empty wells were subtracted from all samples and then normalized to DMSO treated wells.

CDK2/Cyclin E1(14-475) = CDK2/Cyclin E1(14-475) (Homo sapiens, UniProt P24941); assay: Caliper LabChip EZ Reader mobility shift assay, inhibition of CDK2/Cyclin E1 activity; type: biochemical; conditions: class symbols A-D
Description: Inhibition of CDK2/Cyclin E1 activity in the presence of compounds of the present disclosure was evaluated using a Caliper LabChip® EZ Reader mobility shift assay. In the assay, activated CDK2/Cyclin E1 catalyzes the phosphorylation of a fluorescently tagged peptide 5-FAM-QSPKKG-CONH2 (PerkinElmer, FL Peptide 18) which induces a difference in capillary electrophoresis mobility. The peptide substrate and product were measured, and the conversion ratio was used to determine the inhibition (as % activity and IC50 values) of CDK2/Cyclin E1. Reactions contained 50 mM HEPES pH 7.5, 10 mM MgCl2, 1 mM EDTA, 2 mM DTT, 0.01% Brij35, 0.5 mg/mL BSA, 0.1% DMSO, 2.5 nM CDK2/Cyclin E1(14-475), 100 μM ATP, and 1.5 μM fluorescent peptide substrate.
Dose titrations of inhibitors in 100% DMSO were combined with 3.25 nM CDK2/Cyclin E1(14-475) and 130 μM of ATP in reaction buffer. The mixtures were incubated for 30 minutes before the addition of fluorescent peptide substrate to initiate the kinase reaction. The final conditions were 2.5 nM CDK2/Cyclin E1(14-475), 100 μM ATP, and 1.5 μM fluorescent peptide. The reactions were stopped after 100 minutes with the addition of EDTA (6 mM final EDTA concentration). The stopped reactions were analyzed on a Caliper LabChip® EZ Reader II. The conversion ratios were normalized to yield % activity, plotted against compound concentration, and fit to a four-parameter equation to determine the IC50 for each compound.

In the case of `CNC(=O)C(NC(=O)C1CN(C(=O)Cc2c[nH]c3cc(Cl)ccc23)CC2CN(C(=O)c3ccc(OC(C)C)c(OC)c3)CC21)[C@@H](C)OCC1CCCCC1` (stereo partly shown) [I-135], the IC50 (Kuramochi cells) is reported as 0.5 to 5 µM and the IC50 (CDK2/Cyclin E1(14-475)) is reported as ≤ 0.5 µM.
For `CNC(=O)[C@H](CCCc1ccccc1)NC(=O)C1CN(C(=O)Cc2c[nH]c3cc(Cl)ccc23)CC2CN(C(=O)c3ccc(C)cn3)CC21` (stereo partly shown) [I-78], the IC50 (Kuramochi cells) was > 10 µM and the IC50 (CDK2/Cyclin E1(14-475)) was > 10 µM.
With `CNC(=O)[C@H](CCCc1ccccc1)NC(=O)C1CN(C(=O)c2cn3ccncc3n2)CC2CN(C(=O)c3ccc(OC(C)C)c(OC)c3)CC21` (single isomer, unassigned) [I-195] the IC50 (Kuramochi cells) was > 10 µM and the IC50 (CDK2/Cyclin E1(14-475)) was > 10 µM.
In the case of `CNC(=O)[C@H](CCCc1ccccc1)NC(=O)C1CN(C(=O)Cc2c[nH]c3cc(Cl)ccc23)CC2CN(C(=O)c3cccc(-c4ccccc4)c3)CC21` (stereo partly shown) [I-11], the IC50 (Kuramochi cells) is reported as > 10 µM and the IC50 (CDK2/Cyclin E1(14-475)) is reported as > 10 µM.
In the case of `CNC(=O)[C@H](Cc1c[nH]c2ccccc12)NC(=O)C1CN(C(=O)Cc2c[nH]c3cc(Cl)ccc23)CC2CN(C(=O)c3ccc(OC(C)C)c(OC)c3)CC21` (single isomer, unassigned) [I-110], the IC50 (Kuramochi cells) is reported as > 10 µM and the IC50 (CDK2/Cyclin E1(14-475)) is reported as > 10 µM.
With `CNC(=O)[C@H](CCCc1ccccc1)NC(=O)C1CN(C(=O)Cc2c[nH]c3ncccc23)CC2CN(C(=O)c3ccc(OC(C)C)c(OC)c3)CC21` (stereo partly shown) [I-179] the IC50 (Kuramochi cells) was > 10 µM and the IC50 (CDK2/Cyclin E1(14-475)) was > 10 µM.
`CNC(=O)[C@@H](CCCC(C)C)NC(=O)C1CN(C(=O)Cc2c[nH]c3cc(Cl)ccc23)CC2CN(C(=O)c3ccc(OC(C)C)c(OC)c3)CC21` (stereo partly shown) [I-114] was tested, and the IC50 (Kuramochi cells) was > 10 µM and the IC50 (CDK2/Cyclin E1(14-475)) was > 10 µM.
With `CNC(=O)[C@H](CCCc1ccccc1)NC(=O)C1CN(C(=O)Cc2c[nH]c3cc(Cl)ccc23)CC2CN(C(=O)c3ccc(-c4cccnc4)cc3)CC21` (stereo partly shown) [I-79] the IC50 (Kuramochi cells) was > 10 µM and the IC50 (CDK2/Cyclin E1(14-475)) was 5 to 10 µM.
With `CNC(=O)[C@H](CCCc1ccccc1)NC(=O)C1CN(C(=O)Cc2c[nH]c3cc(Cl)ccc23)CC2CN(C(=O)c3ccc(OC(C)C)c(F)c3)CC21` (stereo partly shown) [I-46] the IC50 (Kuramochi cells) was > 10 µM and the IC50 (CDK2/Cyclin E1(14-475)) was 0.5 to 5 µM.
In the case of `CNC(=O)[C@@H](CCCC(C)(C)C)NC(=O)C1CN(C(=O)Cc2c[nH]c3cc(Cl)ccc23)CC2CN(C(=O)c3ccc(OC(C)C)c(OC)c3)CC21` (stereo partly shown) [I-95], the IC50 (Kuramochi cells) is reported as > 10 µM and the IC50 (CDK2/Cyclin E1(14-475)) is reported as 0.5 to 5 µM.
In the case of `CNC(=O)[C@H](CCCC1CCCCCC1)NC(=O)C1CN(C(=O)Cc2c[nH]c3cc(Cl)ccc23)CC2CN(C(=O)c3ccc(OC(C)C)c(OC)c3)CC21` (stereo partly shown) [I-140], the IC50 (Kuramochi cells) is reported as > 10 µM and the IC50 (CDK2/Cyclin E1(14-475)) is reported as 0.5 to 5 µM.
For `CNC(=O)[C@H](Cc1c[nH]c2ccccc12)NC(=O)C1CN(C(=O)Cc2c[nH]c3cc(Cl)ccc23)CC2CN(C(=O)c3ccc(OC(C)C)c(OC)c3)CC21` (single isomer, unassigned) [I-111], the IC50 (Kuramochi cells) was > 10 µM and the IC50 (CDK2/Cyclin E1(14-475)) was ≤ 0.5 µM.
In the case of `CNC(=O)[C@H](CCCc1ccccc1)NC(=O)C1CN(C(=O)Cc2ccc3ncccc3c2)CC2CN(C(=O)c3ccc(OC(C)C)c(OC)c3)CC21` (stereo partly shown) [I-167], the IC50 (Kuramochi cells) is reported as > 10 µM and the IC50 (CDK2/Cyclin E1(14-475)) is reported as > 10 µM.
For `CNC(=O)[C@H](CCCc1ccccc1)NC(=O)C1CN(C(=O)Cc2c[nH]c3cccc(OC)c23)CC2CN(C(=O)c3ccc(OC(C)C)c(OC)c3)CC21` (stereo partly shown) [I-176], the IC50 (Kuramochi cells) was > 10 µM and the IC50 (CDK2/Cyclin E1(14-475)) was > 10 µM.
`CNC(=O)[C@H](CCCc1ccccc1)NC(=O)C1CN(C(=O)Cc2c[nH]c3ccccc23)CC2CN(C(=O)c3ccc(OC(C)C)c(OC)c3)CC21` (stereo partly shown) [I-223] was tested, and the IC50 (Kuramochi cells) was > 10 µM and the IC50 (CDK2/Cyclin E1(14-475)) was > 10 µM.
For `CNC(=O)[C@H](CCCc1ccccc1)NC(=O)C1CN(C(=O)Cc2c[nH]c3cc(Cl)ccc23)CC2CN(C(=O)c3ccc(OC(F)(F)F)cc3)CC21` (stereo partly shown) [I-25], the IC50 (Kuramochi cells) was > 10 µM and the IC50 (CDK2/Cyclin E1(14-475)) was 0.5 to 5 µM.
For `CNC(=O)[C@H](CCCc1ccccc1)NC(=O)C1CN(C(=O)Cc2c[nH]c3cc(Cl)ccc23)CC2CN(C(=O)c3ccc4c(N)n[nH]c4c3)CC21` (stereo partly shown) [I-65], the IC50 (Kuramochi cells) was > 10 µM and the IC50 (CDK2/Cyclin E1(14-475)) was > 10 µM.
